“Also recorded” adds a separate entry of the source.
Legend:
[1] = tested on: humoral and cell-mediated immune responses; details: cited from earlier work
[2] = tested on: Cutaneous delayed-type hypersensitivity (DTH); assay: Delayed-type hypersensitivity (skin induration) in cats; format: in vivo, cat
[3] = tested on: peripheral blood mononuclear cell (PBMC); assay: Lymphoproliferation in dogs (whole blood cultures); format: in vivo, dog
Procedure: Lyniphoproliferation. The proliferation response of peripheral blood mononuclear cell (PBMC) to PHA (2 and 10 mg/L final concentration), concanavalin A (Con A; 1 and 5 mg/L), and pokeweed mitogen (PWM; 0.25 and 1.25 mg/L) was assessed on week 0, 6, 12 and 16 using whole blood cultures (Chew et al., 2000). Whole blood was cultured in order to mimic in vivo conditions.

[4] = tested on: total T, Th, Tc, MHC II and CD21 lymphocyte populations; assay: Leukocyte subsets in cats by flow cytometry; format: in vivo, cat
From the text: Leukocyte subset. Blood collected at week 0, 8 and 12 was phenotyped for populations of CD3 (total T), CD4 (Th), CD8 (Tc), MHC II (activated lymphocytes), and CD21 (mature B cells) by flow cytometry (FACSCalibur, Becton Dickenson, San Jose, Calif.) as previously described (Chew et al., 2000).

[5] = Body weight of cats fed astaxanthin; format: in vivo, cat
Procedure: (§1) Female domestic short hair cats (8 to 9 months old; 3.2±0.04 kg body weight; Liberty Farms, Waverly, N.Y.) were randomly assigned (n=14/diet) to be fed 0, 1, 5, or 10 mg astaxanthin (109 g astaxanthin/kg oleoresin concentrate from Haematococcus pluvialis, astraZanthin™, La Haye Laboratories, Redmond, Wash.) daily (based on an average intake of 90 g food/day) for 12 weeks. Astaxanthin was incorporated into a commercial basal diet (The Iams Co., Lewisburg, Ohio.) and fed ad libitum. The diet composition was as follows (g/kg): 63.1 moisture, 350.6 protein, 62.7 ash, 213.6 fat, 10.0 Ca, 7.6 P, and 7.1 crude fiber, 21,707 kJ/kg gross energy; the n-6:n-3 fatty acid ratio was 9.9. Cats were housed in a temperature (20 to 22° C.) and light-controlled (14 hour light) facility and body weights were determined at weeks 0, 4, 8 and 12. Blood was collected at week 0 and 8 to assess immune function. To assess the dietary effects of astaxanthin on immune response after an antigenic challenge, all cats were vaccinated (Felocell™, Pfizer, N.Y.) two times (weeks 8 and 10) and blood was collected at week 12 to measure the same immune parameters.

[6] = tested on: IgG and IgM; assay: Plasma IgG and IgM in dogs (ELISA); format: in vivo, dog
From the text: Female Beagle dogs (9 to 10 mo old; 8.2±0.2 kg body weight; Covance Research Products Inc., Kalamazoo, Mich.) were randomly assigned ([…] concentrate from Haematococcus pluvialis, astraZanthin™, La Haye Laboratories, Redmond, Wash.) daily for 16 weeks. Astaxanthin was incorporated into a commercial basal diet (The Iams Co., Lewisburg, Ohio.) and fed two times daily (200 g food/d). The diet composition was as follows (g/kg): 85.3 moisture, 275.8 protein, 60.7 ash, 115.0 fat, 9.9 Ca, 9.3 P, 21.3 crude fiber, and 18,914 kJ/kg gross energy; the n-6:n-3 fatty acid ratio was 7.9. Dogs were housed in 2×3 m pens (2 dogs/pen) in a temperature (20 to 22° C.) and light-(14 hour light) controlled facility. Body weight was recorded on week 0, 4, 8, and 16. Blood was collected on wk 0, 6 and 12 for assessing immune function. All dogs were vaccinated (Vanguard 5™, Smithkline Beacham, West Chester, Pa.) twice on week 12 and 14 and blood again taken on week 16 to assess post-vaccination immune responses.
IgG and IgM. Concentrations of IgG (sheep anti-dog IgG; sensitivity=16 micrograms/L) and IgM (goat anti-dog IgM; sensitivity=31 micrograms/L) in plasma were analyzed by ELISA using a commercial kit (Bethyl Lab., Inc., Montgomery, Tex.).

[7] = Absorption of astaxanthin and distribution to blood leukocytes and HDL in dogs; format: in vivo, dog
[8] = Plasma astaxanthin in cats fed astaxanthin diets; format: in vivo, cat
Procedure: as §1

[9] = tested on: 8-Hydroxy-2′-deoxyguanosine (8-OHdG); assay: Oxidative damage to DNA in dogs (plasma 8-OHdG ELISA); format: in vivo, dog
Procedure: Oxidative damage to DNA. 8-Hydroxy-2′-deoxyguanosine (8-OHdG) was measured in plasma ELISA (BIOXYTECHTM™ 8-OHhdG-EIA Kit, OxisResearch, Portland, Oreg.; sensitivity=0.5 micrograms/L).

[10] = Absorption of astaxanthin and distribution to blood leukocytes and HDL in cats; format: in vivo, cat

SMILES: CC1=C(/C=C/C(C)=C/C=C/C(C)=C/C=C/C=C(C)/C=C/C=C(C)/C=C/C2=C(C)C(=O)C(O)CC2(C)C)C(C)(C)CC(O)C1=O (stereo not drawn) [astaxanthin, 3,3′-dihydroxy-beta, beta-carotene-4,4′-dione]
- cell-mediated immune response ([1]; rodents (Chew et al., 1999b)): enhanced
- T cell-mediated antibody production ([1]; rodents (Jyonouchi et al., 1994)): increased T cell-mediated antibody production
- humoral immune response ([1]; rodents (Jyonouchi et al., 1995)): enhanced
- DTH response with dietary astaxanthin ([2]; after vaccination, wk 12): somewhat diminished
- skin induration response to vaccine ([2]; wk 8, 72 h post-injection, cats fed 10 mg): significant enhancement
- DTH response to con A ([2]; wk 8, cats fed 5 or 10 mg): higher DTH response to con A at 24 and 48 h
- time of maximal skin induration response to vaccine ([2]; wk 8, post-injection): 72 h
- DTH response to nonspecific (con A) antigenic challenge ([2]; wk 8, pre-vaccination): stimulated DTH response; also recorded: increased DTH response
- DTH response to specific (vaccine) antigenic challenge ([2]; wk 8, pre-vaccination): stimulated DTH response; also recorded: increased DTH response
- DTH response to con A ([2]; wk 12): significant only with 1 mg astaxanthin
- DTH response to vaccine ([2]; wk 12, cats fed 10 mg): still showed enhanced DTH response to vaccine, but at 24 h after injection
- con A-induced PBMC proliferation ([3]; 20 mg, week 12): higher con A-induced PBMC proliferation than un-supplemented dogs; also recorded: highest blastogenic response
- PHA-stimulated PBMC proliferation ([3]; all time periods): did not influence
- PWM-stimulated PBMC proliferation ([3]; all time periods): did not influence
- CD8+ T cytotoxic (Tc) cells averaged ([4]; average over diets): 4.7±0.4
- MHC class II population averaged ([4]; average over diets, in % (unit assumed)): 94.1±1.0
- population of CD4+ T helper (Th) cells ([4]; by weeks 8 and 12, generally dose-dependent): increased the populations; also recorded: increase in the populations of total T and Th lymphocytes
- MHC class II population ([4]; in vivo): did not influence
- distribution of CD8+ T cytotoxic (Tc) cells ([4]; in vivo): did not influence
- population of B cells ([4]; in vivo): decreased the population of B cells; also recorded: decrease in the B cell population
- body weight between treatments ([5]; cats fed 0, 1, 5 or 10 mg daily, 12 weeks): not significantly different between treatment
- body weight averaged ([5]; week 12, average over all diets): 3.22 ± 0.06 kg
- plasma IgG concentration ([6]; 20 mg, post-vaccination week 16): higher; also recorded: highest concentrations of IgG and IgM
- plasma IgG concentration ([6]; 20 mg, week 12): higher
- plasma IgM concentration ([6]; 20 mg, week 16): significantly higher IgM concentrations; also recorded: highest concentrations of IgG and IgM
- IgG production ([6]; higher (30 mg) dietary astaxanthin): did not produce the same stimulation
- lipoprotein association of circulating astaxanthin ([7]; dogs): associated with high-density lipoprotein (HDL)
- absorption of dietary astaxanthin ([7]; domestic dogs): able to absorb dietary astaxanthin
- uptake by blood and blood leukocytes (sub-cellular organelles) ([7]; domestic dogs fed astaxanthin): significant uptake by the blood and by all sub-cellular organelles of blood leukocytes; also recorded: significantly absorbed by blood leukocytes
- plasma astaxanthin concentrations ([8]; at week 8): rapid initial increase
- plasma astaxanthin concentrations ([8]; cats fed 1, 5 or 10 mg daily): generally a dose-dependent increase; also recorded: dose-related increase in plasma astaxanthin
- plasma astaxanthin ([8]; week 8 through week 12): continued to increase, albeit more gradually
- plasma 8-OHdG concentrations ([9]; dogs fed 40 mg versus lower doses): no further decrease
- plasma 8-OHdG production ([9]; supplemented dogs, as with C-reactive protein (post-vaccination)): inhibited the production of 8-OHdG
- plasma 8-OHdG concentration ([9]; wk 12): no dietary influence
- lipoprotein association of circulating astaxanthin ([10]; cats): associated with high-density lipoprotein (HDL)
- absorption of dietary astaxanthin ([10]; domestic cats): able to absorb dietary astaxanthin
- uptake by blood and blood leukocytes (sub-cellular organelles) ([10]; domestic cats fed astaxanthin): significant uptake by the blood and by all sub-cellular organelles of blood leukocytes; also recorded: significantly absorbed by blood leukocytes
